Experimental data taken from patent publication US20100196311A1, “METHODS AND COMPOSITIONS CONTAINING mTOR INHIBITORS FOR ENHANCING IMMUNE RESPONSES” (priority 2009, published 2010).

Tests used:
OT-I cells = test: Type I effector functions (IFN-γ, CTL activity, Granzyme B) of OT-I cells, primary and secondary phase; type: cell-based, mouse; settings: T-bet-ER-transduced; tamoxifen 10 nM; secondary phase
Method: FIG. 3. Sustained mTOR Activity Is Essential for Heritable Type I Effector Differentiation of CD8^+ T Cells. […] (D and E) OT-I cells were stimulated with Ag+B7.1 (±) IL-12 and rapamycin was added 12 hr after stimulation to evaluate cells for (D) S6K phosphorylation at 48 hr and (E) IFN-γ production at the primary and secondary phase. Experiments shown are representative of at least three (A and B) and two (C-E) independent experiments with similar outcomes. (Data are presented as mean±SEM.)
(§1) Stimulation of OT-1 Cells. Naive OT-I cells were stimulated with latex microspheres expressing H-2K^b/ovalbumin antigen and B7.1 according to known techniques. Naive OT-II cells were stimulated with anti-CD3-/anti-CD28-coated latex beads. In some experiments, the cell line derived from embryonic fibroblasts, namely, BOK (MEC.B7.SigOVA: expressing H-2K^b, OVAp and B7.1, were used as antigen-presenting cells to stimulate naive OT-I cells according to known techniques.
Evaluation of Secondary Antigen-Recall Responses In Vitro. For studying secondary antigen-recall response in vitro; OT-I cells harvested at 72 hr (primary) were washed thrice with medium and recultured (1×10^5/ml) for an additional 72 hr in a 24-well plate with IL-7 (10 ng/ml) only. At 144 hr the cells were harvested, washed thrice with medium, had numbers adjusted (5×10^5), and were restimulated with Ag/B7.1 only for an additional 24 hr (secondary stimulation). At 168 hr, the cells recovered were evaluated by flow cytometry and in vitro functional assay.
Because the presence of IL-12 during antigen stimulation augments mTOR activity and is deterministic for type I effector maturation, we analyzed whether sustained mTOR kinase activity is required for IL-12-programmed type I effector functions in OT-I cells. To do so, we stimulated naive OT-I cells with BOK±IL-12, and rapamycin and effector functions were analyzed from the primary and secondary activated OT-I pool. […] In addition, we observed a block in IL-12-induced IFN-γ production and CTL activity upon rapamycin treatment at 144 hr after primary stimulation.

T-bet = T-bet mRNA and protein expression in OT-I cells; type: cell-based, mouse
Method: FIG. 4. IL-12-Enhanced mTOR Phosphorylation Is Essential for T-bet-Determined Type I Effector Maturation of CD8^+ T Cells. (A-C) OT-I cells stimulated with Ag+B7.1 (±) IL-12 and rapamycin were evaluated for (A) mRNA for T-bet at the indicated time points by RT-PCR, (B) T-bet protein expression at the indicated time-points by ICS, and (C) T-bet protein expression by ICS before and after antigen recall. **p<0.0035; ***p<0.0005. (D) WT and Tbx21^−1− OT-I cells were stimulated with Ag+B7.1 (±) IL-12 and evaluated for IFN-γ production at the primary and secondary phase. ***p<0.0001. (E and F) OT-I cells stimulated with Ag+B7.1 (±) IL-12 and rapamycin were transduced with T-bet-ER retroviral vector (±) 4-HT (10 nM) and evaluated by ICS for (E) T-bet protein expression by ICS and (F) IFN-γ at secondary phase (168 hr). (G and H) OT-I cells stimulated with Ag+B7.1 (±) insulin (1 U/ml) and rapamycin were evaluated by ICS for (G) S6K phosphorylation at 48 hr and (H) T-bet expression at 72 hr. Experiments shown are representative of at least three (A, B, D, E, and F) and two (C, G, and H) independent experiments with similar outcomes. (Data are presented as mean±SEM).
Retroviral Transduction and T-Bet Induction. T-bet-ER RV (Estrogen Responsive Retro Viral Vector) was cotransfected into Platinum-E cells together with the retroviral packaging vector pCL-Eco using LipoD293 DNA in vitro transfection reagent (SignaGen Laboratories) following the manufacturer's instructions. The medium was replaced the following day, and retroviral supernatant was collected 3 days after transfection. For transduction, naive OT-I cells stimulated for 24 hr, were suspended in retroviral supernatant containing polybrene (8 μg/ml; Sigma-Aldrich), and were spin-transduced at 2200 rpm for 90 min at 30° C. After spin-transduction, cells were cultured in fresh medium containing the same polarizing milieu as before, along with the addition of 4-HT (10 nM). At the end of 72 hr after initial stimulation, cells were washed thrice and maintained in the absence of any stimulation but in the presence of 4-HT and IL-7 (10 ng/ml).
Because the sustained expression of T-bet is necessary and sufficient for imprinting type I effector cell fate (Matsuda et al., 2007) and mTOR inhibition reversed IL-12 imprinted type I effector maturation in OT-I cells (FIG. 3), we next sought to determine whether rapamycin treatment affects T-bet expression in OT-I cells by performing kinetic analysis of T-bet mRNA expression (FIG. 4A). […] Moreover, inhibition of mTOR activity at 12 hr was also able to achieve loss in T-bet expression, similar to the observed loss in type I effector maturation (FIG. 3E).

mTOR = molecular target: T1, mTOR (Mus musculus, UniProt P26883+Q9JLN9); test: mTOR activity (mTOR, S6K and S6 phosphorylation by ICS) in stimulated OT-I cells; type: cell-based
T1 construct: endogenous in cells; host or cells: naive OT-I CD8+ T cells (TCR transgenic Rag2-/- mice) stimulated with Ag+B7.1 +/- IL-12
Method: FIG. 1. […] (A and B) OT-I cells stimulated with BOK (Ag+B7.1) (±) IL-12 were evaluated for (A) IFN-γ by ICS and (B) cytolytic activity (primary, 72 hr poststimulation; secondary, 24 hr postsecondary stimulation); ***p<0.0002. (C-E) OT-I cells stimulated with antigen (Ag) (the antigen is a peptide consisting of Ser Ile Ile followed by Asn Phe Glu which are followed by Lys and Lue (OVAp), used at 10 nM) plus B7.1 (100 μg/ml)(Ag+B7.1)(±) IL-12 (2 ng/ml) were evaluated by ICS at the indicated time points for (C) phosphorylated mTOR, (D) phosphorylated S6K, and (E) phosphorylated ribosomal S6. For mTOR inhibition, rapamycin (20 ng/ml) was added 30 min prior to addition of antigen, cytokine Data are representative of at least three independent experiments with similar outcomes. (Data are presented as mean±SEM.)
as §1
Although the kinase mTOR has been implicated as an integrator of various extracellular signals and a sensor for internal energy levels for determination of cell fate, the role for mTOR in integrating instructions that program naive CD8^+ T cells for type I effector differentiation is unclear. First, we tested the ability of Ag and B7.1 (Ag+B7.1) in the presence or absence of IL-12 to activate mTOR in OT-I cells at various time points after stimulation. Stimulation of naive OT-I cells with Ag+B7.1 induced mTOR phosphorylation (activation) by 2 hr, which was maximal at 12 hr and barely detectable by 48 hr (FIG. 1C). Remarkably, IL-12 addition enhanced Ag+B7.1-induced mTOR phosphorylation at 2 hr, which was maintained at 48 hr after stimulation (FIG. 1C). […] To verify that the induction of mTOR phosphorylation also led to its kinase activity, we monitored the kinetics of p70 S6K phosphorylation (Ser 371), a direct target of mTOR kinase activity. Although both Ag+B7.1 and Ag+B7.1 plus IL-12 induced similar amounts of S6K phosphorylation at 12 hr (maximal), the presence of IL-12 was able to sustain the S6K phosphorylation up to 48 hr (FIG. 10), in correlation with mTOR phosphorylation (FIG. 1C). […] The Ag+B7.1±IL-12 stimulation-induced S6K and S6 phosphorylation in OT-I cells was blocked by rapamycin (specific inhibitor of mTOR complex-1) (FIGS. 1D and 1E), thus confirming the ability of instructions to activate mTOR and its kinase activity in OT-I cells. […]

[1] = system: B16 tumors expressing gp100; test: Melanoma model: B16-gp100 tumors in C57/BL6 mice, vaccine with or without temsirolimus; type: in vivo, mouse; settings: vaccine gp100+CA9; treated 10 days after implantation
Method: FIG. 9. mTOR inhibition with temsirolimus enhanced the antitumor effects of a cancer vaccine (complex of gp100 and CA9) in C57/BL6 mice treated 10 days after implantation of B16 tumors expressing gp100. Each line represents tumor growth in a single mouse. To generate the vaccine, gp100 (antigen target) and CA9 (adjuvant) were complexed at 1:1 molar ratio by incubating at RT for 30 min. On day 0, 2×10^5 B16-gp100 cells were implanted into mice. The vaccine was administered i.d. on days 10, 17 and 24. Temsirolimus was inject i.p. on days 11 to 16, 18 to 23 and 25 to 30.
(§2) In the RCC model, a heat shock protein (HSP) served as an immune adjuvant and was complexed to a target antigen, carbonic anhydrase IX (CA9), which is expressed by 90% of clear cell RCCs. Balb/c mice were implanted with syngeneic RENCA tumors engineered to express CA9. In a treatment model targeting established tumor implants, mice were treated 10 days after implantation with tumor vaccine with or without temsirolimus (FIG. 8). […] In this model, CA9 was complexed to a melanoma antigen, gp100. C57/BL6 mice were implanted with syngeneic B16 tumors engineered to express gp100; mice were treated 10 days later with tumor vaccine. Similar results were obtained using a murine ovarian cancer model where the vaccine was augmented with rapamycin.

[2] = system: RENCA (renal cancer cells); test: In vitro growth of RENCA cells; type: cell-based, mouse
[3] = system: target cells loaded with gp100 25-33 epitope; test: In vivo CTL assay with Pmel-1 cells in C57/BL6 mice; parameters: species or system mouse; settings: temsirolimus administered with the vaccine; 14 hours
Text: (§3) Consistent with this possibility, immunization with CA9+gp100 elicited a gp100-specific IFN-γ response from splenocytes using an ELISPOT assay. […] Further, specific killing increased with temsirolimus treatment in an in vivo CTL assay. Pmel-1 cells were adoptively transferred to C57/BL6 mice and immunized with gp100+CA9 with or without temsirolimus. Pmel-1 cells are transgenic cells that recognize the H-2 Db-restricted epitope corresponding to amino acids 25-33 of gp100.13 Target cells loaded with the H-2 Db-restricted epitope were injected and monitored 14 hours later by flow cytometry. […] When temsirolimus was administered with the vaccine, specific killing increased to 78%.

gp100 = test: gp100-specific IFN-γ ELISPOT of splenocytes after immunization; type: in vivo, mouse; settings: concurrent treatment with temsirolimus; p<0.05
Text: FIG. 10. Immunization with CA9+gp100 elicited a gp100-specific IFN-γ response measured using the ELISPOT assay.
as §3

B16 melanoma = test: In vitro growth of B16 melanoma; type: cell-based, mouse
[4] = system: RENCA tumors expressing CA9; test: Renal cell carcinoma model: RENCA-CA9 tumors in Balb/c mice, vaccine with or without temsirolimus; type: in vivo, mouse
Method: FIG. 8. Renal Cell Carcinoma model. mTOR inhibition with temsirolimus enhanced the antitumor effects of a cancer vaccine (complex of hsp110 and CA9) in Balb/C mice 10 days after implantation of RENCA tumors expressing the tumor antigen CA9. Each line represents tumor growth in a single mouse. To generate the vaccine, CA9 (antigen target) and HSP110 (heat shock protein adjuvant) were complexed at 1:1 molar ratio by incubating at 43° C. for 30 min. On day 0, 2×10^5 Renca-CA9 cells were implanted into mice. The vaccine was administered i.d. on days 10, 17 and 24. Temsirolimus was inject i.p. on days 11 to 16, 18 to 23 and 25 to 30.
as §2

[5] = 2-DG added to Ag+B7.1 and IL-12-stimulated OT-I cells

CC/C(=C(\c1ccccc1)c1ccc(OCCN(C)C)cc1)c1ccccc1 [tamoxifen]
IFN-γ production in rapamycin-treated IL-12-conditioned OT-I cells (OT-I cells): restored
T-bet expression in T-bet-ER-transduced OT-I cells (T-bet; tamoxifen 10 nM): substantial increase

O=CC[C@@H](O)[C@H](O)[C@H](O)CO [2-DG, 2-deoxyglucose]
mTOR activity (mTOR; [5]): loss
T-bet expression (T-bet; [5]): loss

CO[C@H]1C[C@@H]2CC[C@@H](C)[C@@](O)(O2)C(=O)C(=O)N2CCCC[C@H]2C(=O)O[C@H]([C@H](C)C[C@@H]2CC[C@@H](OC(=O)C(C)(CO)CO)[C@H](OC)C2)CC(=O)[C@H](C)/C=C(\C)[C@@H](O)[C@@H](OC)C(=O)[C@H](C)C[C@H](C)/C=C/C=C/C=C/1C [temsirolimus]
Tumor growth, combination of vaccine and temsirolimus [1]: greatest effect
Growth in vitro [2]: direct effect
Specific killing [3]: 78%
gp100-specific IFN-γ response from splenocytes (gp100): significantly augmented
Growth in vitro (B16 melanoma): no effect
Tumor growth, agent alone ([4]; treatment from 10 days after implantation): decrease
Tumor growth, combination of vaccine and temsirolimus ([4]; vaccine i.d. days 10, 17, 24, temsirolimus i.p. between): greatest effect

insulin
mTOR activity (S6 Kp) (mTOR; insulin (1 U/ml) added to Ag+B7.1-stimulated OT-I cells, 48 hr): enhanced
T-bet expression (T-bet; insulin (1 U/ml) added to Ag+B7.1-stimulated OT-I cells, 72 hr): increase
